These results are taken from patent publication US9902709B2, “Polysubstituted pyridine compound, preparation method, use and pharmaceutical composition” (PEKING UNIVERSITY FOUNDER GROUP CO., LTD., priority 2014, dated 2018).

Broadly, the IC50 is the concentration that gives 50% inhibition. Lower therefore signals greater potency. As a reminder, the bioavailability is the share of a dose that reaches the circulation, judged against a reference dose that is usually intravenous.

In data set [1] the test system is SK-OV-3 human ovarian cancer cell strain. The data set is described as follows: In vitro anti-proliferation of tumor cells (CCK-8), SK-OV-3. The conditions noted are these: SK-OV-3, 72 hours. In kind it is cell-based. On the procedure:
(§1) Experimental Example 2: Determination of the Compounds According to the Present Invention for IC50 of the In Vitro Anti-Proliferation of Tumor Cells
SK-OV-3 human ovarian cancer cell strain (purchased from Shanghai Institute of Cell Biology, Chinese Academy of Sciences);
(§2) Preparation of a compound: the compound was diluted with DMSO to a final concentration of 10 mM.
(§3) a) Cells in logarithmic growth phase were collected, counted, and re-suspended in complete medium. The concentration of cells was adjusted to a suitable concentration (determined depending on the result of optimization experiment of cell density), and the cells were seeded to a 96-well plate at 100 μl cell suspension per well. The cells were incubated in an incubator at 37° C., 100% relative humidity, 5% CO2 for 24 hours.
(§4) b) A test compound was diluted with the culture medium to 500 μM, and then gradient dilution was performed for 8 times. Cells were added at 25 μl/well. The final concentrations of the compound was in a range from 100 μM and 0 μM, 4-fold diluted, including 10 concentrations.
(§5) c) The cells were incubated in an incubator at 37° C., 100% relative humidity, 5% CO2 for 72 hours.
(§6) d) The culture medium was withdraw and discarded, the complete medium containing 10% CCK-8 was added, and then the cells were incubated in an incubator at 37° C. for 2-4 hours.
(§7) IC50 curve was fitted and IC50 value was calculated by professional software GraphPad Prism 5.0.
(§8) In the experiment, the compounds according to the present invention were determined for their IC50 values of in vitro anti-proliferation of tumor cell strains. The final concentrations of the compounds was in a range from 100 μM and 0 μM, 4-fold diluted, including 10 concentrations.

Data set [2] relates to HCT116 human colon cancer cell strain. Nature of the data set: In vitro anti-proliferation of tumor cells (CCK-8), HCT-116. The format is cell-based. To be noted: HCT-116, 72 hours. On the procedure:
as §1
HCT116 human colon cancer cell strain (purchased from Shanghai Institute of Cell Biology, Chinese Academy of Sciences);
as §2, §3, §4, §5, §6, §7, §8

For data set [3], the system named is MDA-MB-231 human mammary cancer cell strain. Nature of the data set: In vitro anti-proliferation of tumor cells (CCK-8), MDA-MB-231. In kind it is cell-based. Here is the method: as §1
MDA-MB-231 human mammary cancer cell strain (purchased from Shanghai Institute of Cell Biology, Chinese Academy of Sciences);
as §2, §3, §4, §5, §6, §7, §8

The test system of data set [4] is A498 human renal carcinoma cell strain. The data set is described as follows: In vitro anti-proliferation of tumor cells (CCK-8), A498. The conditions noted are these: A498, 72 hours. In kind it is cell-based. Here is the method: as §1
A498 human renal carcinoma cell strain (purchased from Shanghai Institute of Cell Biology, Chinese Academy of Sciences);
as §2, §3, §4, §5, §6, §7, §8

The subject of data set [5] is NCI-H460 Human large cell lung cancer cell strain. Nature of the data set: In vitro anti-proliferation of tumor cells (CCK-8), NCI-H460. The conditions noted are these: NCI-H460, 72 hours. In kind it is cell-based. Here is the method: as §1
NCI-H460 Human large cell lung cancer cell strain (purchased from Shanghai Institute of Cell Biology, Chinese Academy of Sciences);
as §2, §3, §4, §5, §6, §7, §8

In data set [6] the test system is 786-O human renal clear cell carcinoma cell strain. Nature of the data set: In vitro anti-proliferation of tumor cells (CCK-8), 786-O. In kind it is cell-based. The conditions noted are these: 786-0, 72 hours. On the procedure: as §1
786-O human renal clear cell carcinoma cell strain (purchased from Shanghai Institute of Cell Biology, Chinese Academy of Sciences);
as §2, §3, §4, §5, §6, §7, §8

Another data set in a line: Pharmacokinetics in mice. To be noted: female, plasma, CD-1 mouse. In kind it is in vivo. On the procedure: Administration route: intravenous injection (IV); per os (PO).
Fasting condition: free access to water, no fasting.
The mice were weighed before administration, and the administration volume was calculated based on their body weights (IV group: 4 mL/kg; PO group: 10 mL/kg).
Administration route and dose: Intravenous (IV) group: 1 mg/kg; Oral (PO) group: 5 mg/kg.
Animal grouping: 3 mice/group, an IV group and a PO group for each test compound.
After administration, 30 μL whole blood was collected from rim of the eyes of mice in the IV group at each pre-determined time point (5 min, 15 min, 30 min, 1 h, 2 h, 4 h, 8 h, 24 h), and 30 μL whole blood was collected from rim of the eyes of mice in the PO group at each pre-determined time point (15 min, 30 min, 1 h, 2 h, 4 h, 8 h, 24 h). The whole blood was centrifuged (6,000 rpm, 5 min) to get blood plasma. All the blood plasma samples were stored in a refrigerator of −80° C. for further analysis.
Conditions of LC/MS/MS was as follows:
Pharmacokinetic parameters were estimated according to non-compartment model (calculated by WinNonlin software): […]
IV paramater: t1/2 (hr); C0 (ng/mL); AUClast (hr*ng/mL); AUCInf (hr*ng/mL); AUC Extr (%); Vz (L/kg); Vss (L/kg); CL (mL/min/kg); MRT (hr).
PO parameter: t1/2 (hr); tmax (hr); Cmax (ng/mL); AUClast (hr*ng/mL); AUCInf (hr*ng/mL); AUC Extr (%); MRT (hr); AUC/D (hr*mg/mL); F (%).

In data set [7] the test system is HepG2 human liver cancer cell strain. Nature of the data set: In vitro anti-proliferation of tumor cells (CCK-8), HepG2. The format is cell-based. The conditions noted are these: HepG2, 72 hours. On the procedure:
as §1
HepG2 human liver cancer cell strain (purchased from Shanghai Institute of Cell Biology, Chinese Academy of Sciences);
as §2, §3, §4, §5, §6, §7, §8

The test system of data set [8] is HL-60 human acute myeloid leukemia cell strain. Nature of the data set: In vitro anti-proliferation of tumor cells (CCK-8), HL-60. In kind it is cell-based. To be noted: HL-60, 72 hours. On the procedure:
as §1
HL-60 human acute myeloid leukemia cell strain (purchased from Shanghai Institute of Cell Biology, Chinese Academy of Sciences);
as §2, §3, §4, §5, §6, §7, §8

For data set [9], the system named is MiaPaCa-2 human pancreatic cancer cell strain. Nature of the data set: In vitro anti-proliferation of tumor cells (CCK-8), MiaPaCa-2. In kind it is cell-based. To be noted: MIA PaCa-2, MiaPaCa-2, 72 hours. Here is the method: as §1
MiaPaCa-2 human pancreatic cancer cell strain (purchased from American ATCC);
as §2, §3, §4, §5, §6, §7, §8

The target in another data set is VEGFR2 (Homo sapiens (Human), UniProt P35968). The data set is described as follows: Inhibitory activity of VEGFR2 kinase (HTRF KinEASE-TK kit). The format is biochemical. Here is the method: HTRF®KinEASE™-TK kit (Cat.62TKOPEC, Cisbio);
VEGFR2, sequence (P35968 20-1356): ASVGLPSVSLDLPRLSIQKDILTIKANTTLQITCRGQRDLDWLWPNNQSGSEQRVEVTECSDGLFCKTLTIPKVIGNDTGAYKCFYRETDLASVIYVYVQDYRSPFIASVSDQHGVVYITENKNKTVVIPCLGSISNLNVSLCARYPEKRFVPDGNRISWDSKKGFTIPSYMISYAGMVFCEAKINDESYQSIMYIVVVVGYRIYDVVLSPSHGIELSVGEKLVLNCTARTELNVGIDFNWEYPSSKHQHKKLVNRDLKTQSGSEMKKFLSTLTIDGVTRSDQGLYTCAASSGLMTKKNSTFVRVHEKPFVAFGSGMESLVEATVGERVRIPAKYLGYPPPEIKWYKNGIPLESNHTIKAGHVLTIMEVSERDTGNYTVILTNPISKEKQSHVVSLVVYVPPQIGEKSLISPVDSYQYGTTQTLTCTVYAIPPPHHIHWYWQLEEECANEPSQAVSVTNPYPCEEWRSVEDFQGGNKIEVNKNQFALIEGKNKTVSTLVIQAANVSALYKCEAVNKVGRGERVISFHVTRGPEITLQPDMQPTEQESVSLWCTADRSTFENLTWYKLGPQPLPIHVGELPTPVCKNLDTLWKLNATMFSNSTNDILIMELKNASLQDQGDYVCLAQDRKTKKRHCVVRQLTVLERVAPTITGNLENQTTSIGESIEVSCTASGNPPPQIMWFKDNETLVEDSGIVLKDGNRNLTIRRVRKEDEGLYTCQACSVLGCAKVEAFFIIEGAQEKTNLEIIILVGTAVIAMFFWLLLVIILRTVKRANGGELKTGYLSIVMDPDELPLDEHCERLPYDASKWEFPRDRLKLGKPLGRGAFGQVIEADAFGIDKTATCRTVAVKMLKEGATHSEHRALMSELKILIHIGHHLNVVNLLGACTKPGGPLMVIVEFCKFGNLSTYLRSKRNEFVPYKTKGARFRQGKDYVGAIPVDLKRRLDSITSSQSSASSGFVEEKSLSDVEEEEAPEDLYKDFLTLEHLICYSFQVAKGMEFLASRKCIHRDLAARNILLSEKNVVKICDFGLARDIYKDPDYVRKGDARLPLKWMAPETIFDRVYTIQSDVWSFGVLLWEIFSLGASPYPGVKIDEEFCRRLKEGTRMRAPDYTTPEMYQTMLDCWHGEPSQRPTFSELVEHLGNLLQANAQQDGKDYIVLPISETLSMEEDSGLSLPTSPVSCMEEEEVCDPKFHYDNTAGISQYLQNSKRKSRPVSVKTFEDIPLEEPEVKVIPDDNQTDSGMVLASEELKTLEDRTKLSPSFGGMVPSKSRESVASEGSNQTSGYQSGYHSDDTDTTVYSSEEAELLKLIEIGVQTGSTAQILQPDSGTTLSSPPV
VEGFR2 (Cat: k2643, Sigma);
2.1 Preparation of VEGFR2 Kinase Reagent
1× kinase buffer: 1 mL 1× kinase buffer contained 200 μL 5× kinase buffer (Invitrogen), 5 μL, 1M MgCl2, 1 μL 1M DTT, 1 μL 1M MnCl2, and 793 μL ddH2O;
5×TK substrate-biotin and ATP working fluid: as the concentrations of TK substrate-biotin and ATP, please refer to Table 1. TK substrate-biotin and ATP were diluted with 1× kinase buffer to 5 folds of the reaction concentrations;
5× kinase working fluid: as the concentration of VEGFR2 kinase, please refer to Table 1. 5× kinase working fluid was prepared with 1× Kinase buffer;
4× Sa-XL665 working fluid: as the concentration of Sa-XL665 (Cisbio) in the reaction, please refer to Table 1. The 4× Sa-XL665 working fluid was prepared with assay buffer (Cisbio);
4×TK Ab-cryptate working fluid: TK Ab-Cryptate (Cisbio) was 100-fold diluted with assay buffer (Cisbio), as working fluid;
Experimental Procedure of HTRF KinEASE TK Kit
After all the reagents were prepared as described above, the reagents except for enzymes were equilibrated to room temperature, then adding samples were performed.
TK substrate-biotin, ATP, VEGFR2 kinase and a compound at a certain concentration were reacted in 1× kinase buffer at room temperature for 20 minutes. […] To all the reaction wells, 5 μl 4× Sa-XL665 working fluid and 5 μl 4×TK Ab-cryptate working fluid were added. After reacting at room temperature for 1 hours, fluorescence signal (excited at 320 nm, emitted at 665 nm, 615 nm) was detected by ENVISION detector (Perkinelmer). Based on the full-active well and the background signal well, the inhibition rate for each well was calculated, and the average value was used for duplicate wells. The half maximal inhibitory concentration (IC50) for each test compound was fitted by professional software Graphpad PRISM 5.0.
2.3 Data Analysis Emission light ratio (ER)=665 nm emission signal/615 nm emission signal Inhibition rate=(ERpositive−ERsample)/(ERpositive−ERnegative)*100%
HTRF KinEASE TK kit was used to determine the IC50 value of a compound for kinase VEGFR2. The final concentration of the compound started from 100 μM, and 4-fold gradient dilution was carried out to provide 10 concentrations. Duplicate wells were used for each concentration. The final concentration of DMSO was controlled to 1% in the reaction system.
For orientation: TR-FRET usually uses a lanthanide donor and a delayed reading to cut background.

Each structure is given as a SMILES string.

For `Cn1cc(-c2nccc(Oc3ccc(NC(=O)Nc4ccc(Cl)c(C(F)(F)F)c4)cc3)c2F)cn1` [Example 1, 1-(4-chloro-3-(trifluoromethyl)phenyl)-3-(4-(3-fluoro-2-(1-methyl-4-pyrazolyl)-pyridin-4-yl-oxy)phenyl)urea], the 50% inhibitory concentration (IC50) in data set [1] was found to be 7.14 µM; in data set [2], 2.77 µM; in data set [3] (Homo sapiens, MDA-MB-231, 72 hours, CCK-8), 2.82 µM; in data set [4], 4.95 µM; in [5], 0.939 µM; in data set [6], 2.43 µM. Moreover, the IC50 amounted to 0.721 µM in [7]; 17.1 µM in data set [8]; 2.04 µM in data set [9]; 0.0286 µM against VEGFR2 (ATP 5 μM, 20 minutes, room temperature). In addition, the “IC50 as fold of that of Sorafenib” value in data set [3] (MDA-MB-231 cell line) was found to be 0.28 fold. Also, in “Pharmacokinetics in mice” (PO 5 mg/kg vs IV 1 mg/kg, read-out: F (oral bioavailability)), the bioavailability amounted to 90.3%. Further, the AUC(0-t) in “Pharmacokinetics in mice” (PO 5 mg/kg, average of three mice, read-out: AUClast (area under the curve)) worked out at 39600 ng·h/mL. Further, the Cmax in the data set “Pharmacokinetics in mice” (PO 5 mg/kg, average of three mice, read-out: Cmax (peak concentration)) is 1910 ng/mL. For the same compound, the “inhibitory activity as fold of that of Comparative compound 2” value against VEGFR2 (VEGFR2 kinase) stood at 6.6 fold. Besides, the “inhibitory activity as fold of that of Sorafenib” value on VEGFR2 (VEGFR2 kinase) turned out to be 3.13 fold. Besides, the “IC50 value as fold of that of Comparative compound 2” value at VEGFR2 (VEGFR2 kinase, ratio of IC50) is given as 0.15 fold. Further, the “IC50 value as fold of that of Sorafenib (free base)” value at VEGFR2 (VEGFR2 kinase, ratio of IC50) is 0.32 fold.
